{
  "source": "patent US8927021B2",
  "about": "“Granulating process and thus prepared granulate” (Egis Gyogyszergyar Nyilvanosan Muekoedoe Reszventarsasag, priority 2009, dated 2015)",
  "origin": "cited, not measured here",
  "data": [
    {"smiles": "O=C1[C@H](CC[C@H](O)c2ccc(F)cc2)[C@@H](c2ccc(O)cc2)N1c1ccc(F)cc1", "note": "[Ezetimibe, (3R,4S)-1-(4-Fluorophenyl)-3-[(3S)-3-(4-fluorophenyl)-3-hydroxypropyl]-4-(4-hydroxyphenyl)-2-azetidinone]", "values": [
      {"measurement": "solubility in digestive juice", "setting": "digestive juice", "value": "insoluble"},
      {"measurement": "solubility in organic solvents", "setting": "organic solvents", "value": "soluble"},
      {"measurement": "solubility in water", "setting": "water", "value": "insoluble"}
    ]}
  ]
}
